Measured values: patent US20250042900A1 (priority 2022, published 2025)
Where a name gives a salt, the structure may show the parent alone. Read-outs that look alike come from different tables or passages of the source.

Experiments:
[1] = target: Opioid Receptor Mu (OPRM1) (Homo sapiens, UniProt P35372); experiment: cell-based; settings: cAMP, agonist, read-out: EC50 (μM) Agonist/Opener
[2] = target: Muscarinic acetylcholine Receptor M3 (CHRM3) (Homo sapiens, UniProt P20309); experiment: cell-based; settings: Calcium Flux, antagonist, read-out: IC50 (μM) Antag./Blocker/Inhibitor
[3] = target: NAV1.5 (tetrodotoxin-resistant voltage-gated sodium channel) (Homo sapiens, UniProt Q14524); experiment: cell-based
[4] = target: T1, Adrenergic Receptor α2A (ADRA2A) (Homo sapiens, UniProt P08913); experiment: cAMP secondary messenger assay, agonist format; format: cell-based; settings: read-out: EC50 (μM) Agonist/Opener
T1 sequence (P08913 whole entry): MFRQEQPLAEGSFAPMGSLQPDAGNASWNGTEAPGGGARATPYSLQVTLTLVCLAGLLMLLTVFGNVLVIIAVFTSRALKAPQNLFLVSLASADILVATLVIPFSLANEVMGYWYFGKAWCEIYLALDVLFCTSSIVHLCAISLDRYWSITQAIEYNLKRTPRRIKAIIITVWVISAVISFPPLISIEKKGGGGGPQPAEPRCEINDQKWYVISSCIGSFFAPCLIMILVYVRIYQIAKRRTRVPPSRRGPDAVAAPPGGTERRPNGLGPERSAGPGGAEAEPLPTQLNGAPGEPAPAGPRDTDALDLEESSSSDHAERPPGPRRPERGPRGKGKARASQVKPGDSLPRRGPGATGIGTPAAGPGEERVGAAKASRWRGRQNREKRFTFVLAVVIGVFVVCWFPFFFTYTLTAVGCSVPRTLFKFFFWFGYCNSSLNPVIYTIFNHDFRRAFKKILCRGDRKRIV

[5] = target: T2, Adrenergic Receptor β2 (ADRB2) (Homo sapiens, UniProt P07550); experiment: cAMP secondary messenger assay, antagonist format; format: cell-based; settings: read-out: IC50 (μM) Antag./Blocker/Inhibitor
T2 sequence (P07550 whole entry): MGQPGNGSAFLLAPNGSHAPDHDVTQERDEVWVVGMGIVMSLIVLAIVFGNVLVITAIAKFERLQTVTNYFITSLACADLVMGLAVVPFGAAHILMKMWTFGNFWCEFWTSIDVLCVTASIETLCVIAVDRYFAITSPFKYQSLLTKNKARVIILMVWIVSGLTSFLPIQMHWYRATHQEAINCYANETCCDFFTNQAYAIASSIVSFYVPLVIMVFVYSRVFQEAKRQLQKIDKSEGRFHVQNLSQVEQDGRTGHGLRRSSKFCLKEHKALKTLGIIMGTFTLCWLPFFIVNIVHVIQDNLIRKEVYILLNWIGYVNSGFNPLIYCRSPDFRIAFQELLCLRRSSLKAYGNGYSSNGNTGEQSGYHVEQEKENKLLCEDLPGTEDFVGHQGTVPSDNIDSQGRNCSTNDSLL

[6] = target: T1, Adrenergic Receptor α2A (ADRA2A); experiment: cAMP secondary messenger assay, antagonist format; format: cell-based; settings: read-out: IC50 (μM) Antag./Blocker/Inhibitor
[7] = target: 5-Hydroxytryptamine (Serotonin) Receptor 2B (5-HT2B) (Homo sapiens, UniProt P41595); experiment: Calcium flux secondary messenger assay, antagonist format; format: cell-based; settings: read-out: IC50 (μM) Antag./Blocker/Inhibitor
5-Hydroxytryptamine (Serotonin) Receptor 2B (5-HT2B), sequence (P41595 whole entry): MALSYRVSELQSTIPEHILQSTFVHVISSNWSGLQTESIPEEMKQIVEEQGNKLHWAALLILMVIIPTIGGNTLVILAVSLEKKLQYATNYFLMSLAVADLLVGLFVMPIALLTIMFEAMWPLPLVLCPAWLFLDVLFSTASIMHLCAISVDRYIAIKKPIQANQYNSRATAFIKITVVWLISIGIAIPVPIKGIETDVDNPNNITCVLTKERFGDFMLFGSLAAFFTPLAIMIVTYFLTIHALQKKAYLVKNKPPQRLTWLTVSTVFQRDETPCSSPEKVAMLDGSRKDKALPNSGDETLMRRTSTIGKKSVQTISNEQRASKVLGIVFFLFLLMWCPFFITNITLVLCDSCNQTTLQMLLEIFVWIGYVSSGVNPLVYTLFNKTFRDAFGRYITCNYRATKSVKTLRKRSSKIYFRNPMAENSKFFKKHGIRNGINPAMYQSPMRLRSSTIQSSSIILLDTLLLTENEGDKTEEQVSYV

[8] = target: Muscarinic acetylcholine Receptor M1 (CHRM1) (Homo sapiens, UniProt P11229); experiment: Calcium flux secondary messenger assay, agonist format; format: cell-based; settings: read-out: EC50 (μM) Agonist/Opener
PDE4D2 = target: T3, PDE4D2 (Homo sapiens, UniProt Q08499); experiment: Enzymatic assay PDE4D2; format: biochemical; settings: inhibitor, read-out: IC50 (μM) Antag./Blocker/Inhibitor
T3 construct: purchased Signal Chem
T3 sequence (Q08499 303-809 limits assumed): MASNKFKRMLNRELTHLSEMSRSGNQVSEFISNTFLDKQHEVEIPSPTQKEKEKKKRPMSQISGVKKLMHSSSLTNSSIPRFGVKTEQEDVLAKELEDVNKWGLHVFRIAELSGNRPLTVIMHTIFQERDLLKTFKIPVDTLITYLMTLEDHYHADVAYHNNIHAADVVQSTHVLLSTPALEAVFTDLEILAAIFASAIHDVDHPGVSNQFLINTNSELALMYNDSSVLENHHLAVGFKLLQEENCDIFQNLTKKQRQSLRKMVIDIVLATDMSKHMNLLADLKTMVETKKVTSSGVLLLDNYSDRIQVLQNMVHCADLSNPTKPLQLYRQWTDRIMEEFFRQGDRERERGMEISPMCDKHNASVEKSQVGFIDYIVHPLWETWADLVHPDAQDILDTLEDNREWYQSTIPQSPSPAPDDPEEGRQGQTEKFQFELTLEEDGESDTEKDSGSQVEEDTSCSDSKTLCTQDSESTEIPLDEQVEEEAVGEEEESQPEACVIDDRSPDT

[9] = target: Dopamine Receptor D2 (DRD2S) (Homo sapiens, UniProt P14416); experiment: cAMP secondary messenger assay, agonist format; format: cell-based; settings: read-out: EC50 (μM) Agonist/Opener
AChE = target: T4, AChE (Homo sapiens, UniProt P22303); experiment: Enzymatic assay AChE; format: biochemical; settings: inhibitor, read-out: IC50 (μM) Antag./Blocker/Inhibitor
T4 construct: purchased R&D Systems

[10] = target: T5, Insulin Receptor (tyrosine kinase) (INSR) (Homo sapiens, UniProt P06213); experiment: Kinase binding assay (KINOMEscan); settings: inhibitor, read-out: IC50 (μM) Antag./Blocker/Inhibitor
T5 construct: T7 phage fusion (most assays) or DNA tag for qPCR (the remaining kinases); made in house; host or cells: E. coli (BL21-derived, T7 phage display) or HEK-293

[11] = target: T6, Adrenergic Receptor α1A (ADRA1A) (Homo sapiens, UniProt P35348); experiment: Calcium flux secondary messenger assay, agonist format; format: cell-based; settings: read-out: EC50 (μM) Agonist/Opener
T6 sequence (P35348 whole entry): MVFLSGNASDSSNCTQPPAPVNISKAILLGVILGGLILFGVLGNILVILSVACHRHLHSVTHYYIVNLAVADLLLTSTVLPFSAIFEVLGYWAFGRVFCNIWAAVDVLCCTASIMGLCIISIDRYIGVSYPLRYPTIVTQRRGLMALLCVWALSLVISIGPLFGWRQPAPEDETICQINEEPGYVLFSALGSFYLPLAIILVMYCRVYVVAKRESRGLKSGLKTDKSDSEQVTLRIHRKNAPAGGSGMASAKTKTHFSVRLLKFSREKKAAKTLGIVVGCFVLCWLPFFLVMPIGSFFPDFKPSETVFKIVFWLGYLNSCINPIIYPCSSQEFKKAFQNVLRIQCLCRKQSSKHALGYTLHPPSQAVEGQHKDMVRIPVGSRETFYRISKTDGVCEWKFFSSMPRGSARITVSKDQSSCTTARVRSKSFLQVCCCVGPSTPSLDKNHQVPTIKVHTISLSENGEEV

[12] = system: Gamma-aminobutyric acid Receptor A (GABAA); experiment: Ion channel assay, opener format; format: cell-based; settings: read-out: EC50 (μM) Agonist/Opener
[13] = target: Adenosine Receptor A2A (ADORA2A) (Homo sapiens, UniProt P29274); experiment: Calcium flux secondary messenger assay, antagonist format; format: cell-based; settings: read-out: IC50 (μM) Antag./Blocker/Inhibitor
[14] = target: Nuclear Hormone Glucocorticoid Receptor (GR) (Homo sapiens, UniProt P04150); experiment: NHR Protein Interaction assay, agonist format; format: cell-based; settings: read-out: EC50 (μM) Agonist/Opener
[15] = target: T7, Histamine Receptor H1 (HRH1) (Homo sapiens, UniProt P35367); experiment: Calcium flux secondary messenger assay, agonist format; format: cell-based; settings: read-out: EC50 (μM) Agonist/Opener
T7 sequence (P35367 whole entry): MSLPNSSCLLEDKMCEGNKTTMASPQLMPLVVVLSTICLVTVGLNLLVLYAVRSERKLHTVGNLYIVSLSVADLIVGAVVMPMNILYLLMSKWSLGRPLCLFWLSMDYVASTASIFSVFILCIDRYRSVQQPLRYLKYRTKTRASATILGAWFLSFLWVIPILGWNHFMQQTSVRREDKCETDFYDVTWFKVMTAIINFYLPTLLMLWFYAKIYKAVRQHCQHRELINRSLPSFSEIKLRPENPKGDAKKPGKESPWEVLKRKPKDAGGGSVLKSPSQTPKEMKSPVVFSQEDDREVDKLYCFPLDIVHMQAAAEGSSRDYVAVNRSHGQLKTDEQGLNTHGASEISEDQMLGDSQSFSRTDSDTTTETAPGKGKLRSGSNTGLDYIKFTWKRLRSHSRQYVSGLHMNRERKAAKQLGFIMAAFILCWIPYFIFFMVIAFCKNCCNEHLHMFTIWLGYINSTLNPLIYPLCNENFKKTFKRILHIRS

5-HT1B receptors = target: T8, 5-HT1B receptors (Homo sapiens, UniProt P28222); experiment: In vitro activity at 5-HT1B receptors, agonist mode (cAMP secondary messenger assay); format: cell-based
T8 construct: host or cells: cAMP Hunter cell line
T8 sequence (P28222 whole entry): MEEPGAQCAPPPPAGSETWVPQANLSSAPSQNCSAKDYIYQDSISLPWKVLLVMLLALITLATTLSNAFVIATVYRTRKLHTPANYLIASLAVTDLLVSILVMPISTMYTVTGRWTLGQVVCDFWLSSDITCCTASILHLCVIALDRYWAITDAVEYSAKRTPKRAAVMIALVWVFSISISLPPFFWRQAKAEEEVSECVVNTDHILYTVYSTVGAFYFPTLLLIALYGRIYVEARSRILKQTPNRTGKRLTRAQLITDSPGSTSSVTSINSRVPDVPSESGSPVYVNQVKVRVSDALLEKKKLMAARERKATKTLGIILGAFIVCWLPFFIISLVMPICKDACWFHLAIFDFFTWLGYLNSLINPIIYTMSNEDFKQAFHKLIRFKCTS

[16] = target: Histamine Receptor H2 (HRH2) (Homo sapiens, UniProt P25021); experiment: cAMP secondary messenger assay, agonist format; format: cell-based; settings: read-out: EC50 (μM) Agonist/Opener
Histamine Receptor H2 (HRH2), sequence (P25021 whole entry): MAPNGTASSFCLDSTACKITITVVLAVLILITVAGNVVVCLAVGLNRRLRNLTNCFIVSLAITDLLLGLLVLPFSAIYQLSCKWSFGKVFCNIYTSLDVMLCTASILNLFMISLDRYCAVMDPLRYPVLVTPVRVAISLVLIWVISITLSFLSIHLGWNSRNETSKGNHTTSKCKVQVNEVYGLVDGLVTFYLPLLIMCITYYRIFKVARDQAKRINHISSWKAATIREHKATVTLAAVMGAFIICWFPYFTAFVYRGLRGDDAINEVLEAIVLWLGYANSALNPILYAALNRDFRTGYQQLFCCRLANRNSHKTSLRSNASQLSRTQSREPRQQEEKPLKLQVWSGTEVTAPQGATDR

[17] = target: Cholecystokinin Receptor A (CCKAR) (Homo sapiens, UniProt P32238); experiment: Calcium flux secondary messenger assay, agonist format; format: cell-based; settings: read-out: EC50 (μM) Agonist/Opener
[18] = target: Arginine Vasopressin Receptor 1A (AVPR1A) (Homo sapiens, UniProt P37288); experiment: as above; format: cell-based; settings: read-out: EC50 (μM) Agonist/Opener
[19] = target: T7, Histamine Receptor H1 (HRH1); experiment: cell-based; settings: Calcium Flux, antagonist, read-out: IC50 (μM) Antag./Blocker/Inhibitor
dopamine transporter = dopamine transporter (Homo sapiens, UniProt Q01959); experiment: Monoamine transporter uptake assay (Neurotransmitter Transporter Uptake Assay Kit), blocker format
[20] = target: T9, 5-Hydroxytryptamine (Serotonin) Receptor 3A (5-HT3A) (Homo sapiens, UniProt P46098); experiment: Ion channel assay, opener format; format: cell-based; settings: read-out: EC50 (μM) Agonist/Opener
T9 construct: expressed in transfected cells
T9 sequence (P46098 24-478): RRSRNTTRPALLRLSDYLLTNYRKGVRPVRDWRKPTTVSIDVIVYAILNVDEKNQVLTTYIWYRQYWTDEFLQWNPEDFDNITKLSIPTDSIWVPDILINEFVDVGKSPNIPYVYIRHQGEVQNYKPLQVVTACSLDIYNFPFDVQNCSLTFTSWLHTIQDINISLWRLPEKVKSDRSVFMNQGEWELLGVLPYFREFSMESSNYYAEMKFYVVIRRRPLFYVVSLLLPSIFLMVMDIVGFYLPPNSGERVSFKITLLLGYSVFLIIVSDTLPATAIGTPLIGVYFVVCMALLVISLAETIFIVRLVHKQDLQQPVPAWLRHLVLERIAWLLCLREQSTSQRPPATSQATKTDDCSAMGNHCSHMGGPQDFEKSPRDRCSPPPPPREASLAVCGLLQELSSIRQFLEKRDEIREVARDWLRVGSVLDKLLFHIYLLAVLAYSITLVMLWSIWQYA

[21] = target: Dopamine Receptor D1 (DRD1) (Homo sapiens, UniProt P21728); experiment: cAMP secondary messenger assay, antagonist format; format: cell-based; settings: read-out: IC50 (μM) Antag./Blocker/Inhibitor
[22] = target: T10, Lymphocyte Cell-Specific Protein-Tyrosine Kinase (Src family) (LCK) (Homo sapiens, UniProt P06239); experiment: Kinase binding assay (KINOMEscan); settings: inhibitor, read-out: IC50 (μM) Antag./Blocker/Inhibitor
T10 construct: T7 phage fusion (most assays) or DNA tag for qPCR (the remaining kinases); made in house; host or cells: E. coli (BL21-derived, T7 phage display) or HEK-293
T10 sequence (P06239 whole entry, the tested form may be a part): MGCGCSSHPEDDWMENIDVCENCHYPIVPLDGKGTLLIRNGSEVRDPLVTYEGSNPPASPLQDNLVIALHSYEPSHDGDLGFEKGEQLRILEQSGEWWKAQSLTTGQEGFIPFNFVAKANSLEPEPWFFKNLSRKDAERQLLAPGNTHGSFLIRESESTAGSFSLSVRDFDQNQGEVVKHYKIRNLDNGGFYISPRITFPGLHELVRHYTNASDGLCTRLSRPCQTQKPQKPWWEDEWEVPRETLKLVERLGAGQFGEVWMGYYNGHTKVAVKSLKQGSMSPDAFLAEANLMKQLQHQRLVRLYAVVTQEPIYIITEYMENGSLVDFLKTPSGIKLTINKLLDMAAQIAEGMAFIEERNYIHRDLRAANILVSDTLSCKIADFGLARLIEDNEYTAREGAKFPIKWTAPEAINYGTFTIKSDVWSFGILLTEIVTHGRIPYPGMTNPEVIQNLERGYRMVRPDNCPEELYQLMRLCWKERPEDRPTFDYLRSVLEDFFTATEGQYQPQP

[23] = target: T6, Adrenergic Receptor α1A (ADRA1A); experiment: Calcium flux secondary messenger assay, antagonist format; format: cell-based; settings: read-out: IC50 (μM) Antag./Blocker/Inhibitor
[24] = target: T2, Adrenergic Receptor β2 (ADRB2); experiment: cAMP secondary messenger assay, agonist format; format: cell-based; settings: read-out: EC50 (μM) Agonist/Opener
COX1 = target: T11, COX1 (Homo sapiens, UniProt P23219); experiment: Enzymatic assay COX1; format: biochemical; settings: inhibitor, read-out: IC50 (μM) Antag./Blocker/Inhibitor
T11 construct: purchased BPS Bioscience

[25] = target: Opioid Receptor Delta 1 (OPRD1) (Homo sapiens, UniProt P41143); experiment: cAMP secondary messenger assay, agonist format; format: cell-based; settings: read-out: EC50 (μM) Agonist/Opener
[26] = target: N-methyl-D-aspartate (NMDA) Glutamate Receptor 1A/2B (NMDAR (1A/2B)) (Homo sapiens, UniProt Q05586+Q13224); experiment: Ion channel assay, opener format; format: cell-based; settings: read-out: EC50 (μM) Agonist/Opener

Opioid Receptor Mu (OPRM1), sequence (P35372 whole entry): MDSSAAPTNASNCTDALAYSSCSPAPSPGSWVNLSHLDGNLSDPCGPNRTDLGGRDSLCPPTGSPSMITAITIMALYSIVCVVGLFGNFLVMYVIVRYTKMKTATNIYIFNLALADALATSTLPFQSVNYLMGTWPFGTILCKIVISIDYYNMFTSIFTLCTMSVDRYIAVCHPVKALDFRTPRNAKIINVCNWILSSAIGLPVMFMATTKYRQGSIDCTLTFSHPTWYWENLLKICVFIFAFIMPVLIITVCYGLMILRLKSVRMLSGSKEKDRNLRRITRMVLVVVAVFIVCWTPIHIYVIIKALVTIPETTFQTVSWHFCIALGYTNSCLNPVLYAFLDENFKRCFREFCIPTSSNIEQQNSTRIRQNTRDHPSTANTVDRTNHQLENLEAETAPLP

With `CN(C)CCc1ccn2ccccc12` [28-12 oxalate, 2-(indolizin-1-yl)-N, N-dimethylethan-1-amine oxalate] the EC50 [1] was > 30 µM, the IC50 [2] was > 30 µM and the IC50 [3] was > 30 µM. The EC50 [4] was > 30 µM, the IC50 [5] was 10.2 µM and the IC50 [6] was > 30 µM. For the same molecule, the IC50 [7] was 3.28 µM, the EC50 [8] was > 30 µM and the IC50 (PDE4D2) was > 30 µM. The EC50 [9] was > 30 µM, the IC50 (AChE) was > 30 µM and the IC50 [10] was > 30 µM. For the same molecule, the EC50 [11] was > 30 µM, the EC50 [12] was > 30 µM and the IC50 [13] was > 30 µM. For the same molecule, the EC50 [14] was > 30 µM, the EC50 [15] was > 30 µM and the EC50 (5-HT1B receptors; 5-HT1B, cAMP, read-out: EC50 (μM) Agonist/Opener) was 0.143 µM. The EC50 (5-HT1B receptors; EC50, agonism of 5-HT1B receptors, ten concentrations up to 30 μM) was ~0.143 µM, the EC50 [16] was > 30 µM and the EC50 [17] was > 30 µM. The EC50 [18] was > 30 µM, the IC50 [19] was 9.27 µM and the IC50 (dopamine transporter) was > 30 µM. For the same molecule, the EC50 [20] was > 30 µM, the IC50 [21] was > 30 µM and the IC50 [22] was > 30 µM. For the same molecule, the IC50 [23] was 2.31 µM, the EC50 [24] was > 30 µM and the IC50 (COX1) was 5.13 µM. For the same molecule, the EC50 [25] was > 30 µM and the EC50 [26] was > 30 µM.
